The values that follow come from patent US20160083400A1, “TRICYCLIC GUANIDINE DERIVATIVE” (Sunovion Pharmaceuticals Inc., priority 2014, published 2016).

This assay deals with PDE1B (Homo sapiens, UniProt Q01064). Description: In vitro HTRF PDE1 inhibition assay (PDE1B). It is filed as biochemical. Particulars: 100 nM cyclic GMP, calmodulin, 45 minutes at 37° C. (Time-resolved FRET reads energy transfer from a long-lived donor to a nearby acceptor.)
Sequence of PDE1B (Q01064 whole entry): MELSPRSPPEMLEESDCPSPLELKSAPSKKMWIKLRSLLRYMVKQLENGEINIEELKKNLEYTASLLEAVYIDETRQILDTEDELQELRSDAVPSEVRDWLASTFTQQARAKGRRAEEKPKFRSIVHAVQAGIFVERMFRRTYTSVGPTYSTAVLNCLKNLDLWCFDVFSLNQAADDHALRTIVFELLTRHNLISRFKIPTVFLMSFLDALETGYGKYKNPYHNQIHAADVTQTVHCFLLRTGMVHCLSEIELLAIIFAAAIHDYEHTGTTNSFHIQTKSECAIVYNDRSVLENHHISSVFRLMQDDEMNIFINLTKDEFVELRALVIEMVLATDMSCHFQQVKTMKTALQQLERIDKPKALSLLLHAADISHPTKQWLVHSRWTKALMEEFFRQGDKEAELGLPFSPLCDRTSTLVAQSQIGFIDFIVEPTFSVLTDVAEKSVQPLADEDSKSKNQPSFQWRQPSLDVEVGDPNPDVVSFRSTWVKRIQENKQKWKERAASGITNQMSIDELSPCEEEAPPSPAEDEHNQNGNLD
Description: The HTRF PDE1 assay utilized the HTRF technology, which is based on the competition between unlabeled cyclic nucleotide and cyclic nucleotide labeled with XL665 for the binding to cyclic nucleotide-specific antibody labeled with cryptate. The HTRF signal is thus inversely proportional to the concentration of cyclic nucleotide being measured. Since phosphodiesterases break down cyclic nucleotides the HTRF signal was used to determine PDE activity.
The Cisbio cGMP HTRF assay kit (Cat no: 62GM2PEC) was utilized. Cyclic GMP was diluted to 200 nM in HTRF assay buffer (1 mM CaCl2, 10 mM MgCl2, 10 mM Tris-HCl, 0.1% BSA, pH7.4). […] PDE (1A3, 1B or 1C) was diluted to 2× working concentration in HTRF assay buffer with 4 μg/ml Calmodulin, and 10 μl was added to initiate the reaction. The plate was then incubated for 45 minutes at 37° C. d2-Labelled cyclic GMP and anti-cGMP cryptate were diluted in 50 mM phosphate buffer, 0.8M KF, 1% Triton X100, 0.2% BSA, pH7.0. Following incubation 10 μl d2-cGMP, then 10 μl anti cGMP cryptate were added to each well and the plate was incubated for 45 minutes at rt. The plate was then read on Perkin Elmer Victor at 2 different FRET readings ex/emm 340 nm/665 nm and 340 nm/615 nm.
The IC50 is the concentration that inhibits the measured activity by half. Read a low IC50 as inhibition by little substance. On to `O=c1c2cnn(C3CCOCC3)c2nc2n1CC(c1ccc(Cl)cc1)N2` (centres unmarked) [Example 75], for which the 50% inhibitory concentration (IC50) was below 1 µM.

The compound `Cc1cnc(CC2CCn3c(nc4c(cnn4C4CCCC4)c3=O)N2)nc1` (centres unmarked) [Example 70, 1-Cyclopentyl-8-[(5-methyl-2-pyrimidinyl)methyl]-6,7,8,10-tetrahydropyrazolo[3,4-d]pyrimido[1,2-a]pyrimidin-4(1H)-one] displayed an IC50 of 1 to 10 µM.

Regarding `COc1cccc([C@H]2CCn3c(nn4c(C5CCOCC5)ncc4c3=O)N2)c1` [Example 128], the IC50 is below 1 µM.

As to `O=c1c2cnn(C3CCCC3)c2nc2n1CC[C@@H](c1ccc(Cl)cc1)N2` [Example 41], the IC50 was 1 to 10 µM.

In turn, `CC(C)c1ncc2c(=O)n3c(nn12)N[C@H](c1ccc(Cl)cc1)CC3` [Example 49] gave an IC50 of 1 to 10 µM.

For `C[C@@H](O)c1ncc2c(=O)n3c(nn12)N[C@@H](c1ccc(Cl)cc1)CC3` [Example 250], the IC50 was below 1 µM.

Regarding `CC(C)Cc1ncc2c(=O)n3c(nn12)N[C@@H](c1ccc(Cl)cc1)CC3` [Example 166], the IC50 was below 1 µM.

Take `Cc1ncc(CC2CCn3c(nc4c(cnn4C(C)C)c3=O)N2)cn1` (centres unmarked) [Example 72]: the IC50 lay within 1 to 10 µM.

In turn, `CC(C)n1ncc2c(=O)n3c(nc21)NC(c1ccccc1Cl)CC3` (centres unmarked) [Example 31] displayed an IC50 below 1 µM.

`COc1cccc(C2CCn3c(nn4c(C(C)C)ncc4c3=O)N2)c1` (centres unmarked) [Example 47] returned an IC50 below 1 µM.

Regarding `COc1ccc([C@@H]2CN3C(=O)c4cnc(C5(C(F)(F)F)CC5)n4NC3=N2)cc1` [Example 255, (2R)-2-(4-Methoxyphenyl)-8-[1-(trifluoromethyl)cyclopropyl]-2,10-dihydro-3H,5H-diimidazo[2,1-c:5′,1′-f][1,2,4]triazin-5-one], the IC50 was below 1 µM.

The compound `N#Cc1ccc(C2CCn3c(nn4c(C5CCOCC5)ncc4c3=O)N2)cc1` (centres unmarked) [Example 93] registered an IC50 below 1 µM.

The compound `O=c1c2cnc(C3CCOCC3)n2nc2n1CC[C@@H](c1cccc(Cl)c1)N2` [Example 126] registered an IC50 below 1 µM.

In turn, `O=c1c2cnc(C3CCC3)n2nc2n1CCC(Cc1ccc(Cl)cc1)N2` (centres unmarked) [Example 66] registered an IC50 below 1 µM.

`CC(C)c1ncc2c(=O)n3c(nn12)NC(c1ccc(C(F)(F)F)cc1)CC3` (centres unmarked) [Example 50]: the IC50 was below 1 µM.

With `CC(C)c1ncc2n1NC1=N[C@@H](c3ccc(Cl)cc3)CN1C2=O` [Example 137, (2S)-2-(4-Chlorophenyl)-8-isopropyl-2,10-dihydro-3H,5H-diimidazo[2,1-c:5′,1′-f][1,2,4]triazin-5-one], the IC50 is below 1 µM.

Turning to `N#Cc1ccc(C2CCn3c(nc4c(C5CCCC5)onc4c3=O)N2)cc1` (centres unmarked) [Example 154], the IC50 was in the range of 1 to 10 µM.

In the case of `CC(C)c1ncc2c(=O)n3c(nn12)NC(c1ccc(Cl)cn1)CC3` (centres unmarked) [Example 51], the half-maximal inhibitory concentration (IC50) is below 1 µM.

Compound `N#Cc1ccc(C2CCn3c(nn4c(C5CCC5)ncc4c3=O)N2)cc1` (centres unmarked) [Example 95] displayed an IC50 below 1 µM.

`CCn1ncc2c(=O)n3c(nc21)NC(c1ccc(Cl)cc1)CC3` (centres unmarked) [Example 34] had an IC50 below 1 µM.

`CC(C)n1ncc2c(=O)n3c(nc21)NC(c1ccccc1)CC3` (centres unmarked) [Example 32] gave an IC50 below 1 µM.

For the compound `O=c1c2cnc(C3CCOCC3)n2nc2n1CCC(c1cccc(Cl)c1)N2` (centres unmarked) [Example 56], the IC50 was below 1 µM.

In turn, `Cc1cnc(CC2CCn3c(nc4c(cnn4C(C)C)c3=O)N2)nc1` (centres unmarked) [Example 73] displayed an IC50 of 1 to 10 µM.

The compound `COc1cc(C2CCn3c(nn4c(C(C)C)ncc4c3=O)N2)ccc1F` (centres unmarked) [Example 48] showed an IC50 below 1 µM.

The compound `O=c1c2cnn(C3CCOCC3)c2nc2n1C[C@H](c1ccc(Cl)cc1)N2` [Example 148] yielded an IC50 below 1 µM.

Compound `CC(C)c1ncc2c(=O)n3c(nn12)NC(c1ccc(OCF)cc1)C3` (centres unmarked) [Example 262, 2-[4-(Fluoromethoxy)phenyl]-8-isopropyl-2,10-dihydro-3H,5H-diimidazo[2,1-c:5′,1′-f][1,2,4]triazin-5-one] registered an IC50 below 1 µM.

In the case of `CC(C)c1ncc2c(=O)n3c(nn12)NC(c1ccc(C#N)cc1)CC3` (centres unmarked) [Example 91], the IC50 was below 1 µM.

`O=c1c2cnn(CC(F)(F)F)c2nc2n1CCC(c1ccc(Cl)cc1)N2` (centres unmarked) [Example 38] displayed an IC50 below 1 µM.

For the compound `COc1ccc(CC2CCn3c(nn4c(C5CCOCC5)ncc4c3=O)N2)cc1` (centres unmarked) [Example 58], the IC50 was below 1 µM.

Consider `C=Cc1ncc2c(=O)n3c(nn12)N[C@@H](c1ccc(Cl)cc1)CC3` [Example 248], for which the IC50 was 1 to 10 µM.

`O=c1c2cnc(C3CCOCC3)n2nc2n1CCC1(CCc3ccccc31)N2` (centres unmarked) [Example 177, 9-(Tetrahydro-2H-pyran-4-yl)-2′,3,3′,4-tetrahydro-1H,6H-spiro[imidazo[5,1-f]pyrimido[2,1-c][1,2,4]triazine-2,1′-inden]-6-one] had an IC50 of 1 to 10 µM.

As to `O=c1c2cnc(C3CCOCC3)n2nc2n1CC[C@H](c1ccc(Cl)cc1C(F)(F)F)N2` [Example 122], the IC50 is below 1 µM.

`O=c1c2cnn(CC3CC3)c2nc2n1CCC(c1ccc(Cl)cc1)N2` (centres unmarked) [Example 37] displayed an IC50 below 1 µM.

`Cc1cccc([C@@H]2CCn3c(nn4c(C5CCOCC5)ncc4c3=O)N2)c1` [Example 263, (2S)-2-(3-Methylphenyl)-9-(tetrahydro-2H-pyran-4-yl)-1,2,3,4-tetrahydro-6H-imidazo[5,1-f]pyrimido[2,1-c][1,2,4]triazin-6-one] returned an IC50 below 1 µM.

The compound `COc1ccc(CC2CCn3c(nc4c(cnn4C(C)C)c3=O)N2)cc1` (centres unmarked) [Example 13] registered an IC50 below 1 µM.

As to `N#Cc1cccc(C2CCn3c(nn4c(C5CCOCC5)ncc4c3=O)N2)c1` (centres unmarked) [Example 94], the IC50 was below 1 µM.

Regarding `CC(C)n1ncc2c(=O)n3c(nc21)N[C@H](c1ccc(Cl)cc1)C3` [Example 143], the IC50 was below 1 µM.

`O=c1c2cnc(C3CCOCC3)n2nc2n1CC[C@@H](c1ccc(Cl)cc1C(F)(F)F)N2` [Example 123]: the IC50 fell in the range of 1 to 10 µM.

In the case of `O=c1c2cnn(C3CC3)c2nc2n1CCC(c1ccc(Cl)cc1)N2` (centres unmarked) [Example 15], the IC50 was below 1 µM.

For the compound `CC(C)n1ncc2c(=O)n3c(nc21)NC(c1cccc(Cl)c1)CC3` (centres unmarked) [Example 30], the IC50 was below 1 µM.

The compound `C=C(C)c1ncc2c(=O)n3c(nn12)N[C@@H](c1ccc(Cl)cc1)CC3` [Example 241] returned an IC50 below 1 µM.

The compound `Cc1ccc([C@@H]2CN3C(=O)c4cnc(C(C)C)n4NC3=N2)cc1` [Example 97, (2R)-8-Isopropyl-2-(4-methylphenyl)-2,10-dihydro-3H,5H-diimidazo[2,1-c:5′,1′-f][1,2,4]triazin-5-one] came in with an IC50 below 1 µM.

`Cc1cccc([C@H]2CCn3c(nn4c(C5CCOCC5)ncc4c3=O)N2)c1` [Example 264, (2R)-2-(3-Methylphenyl)-9-(tetrahydro-2H-pyran-4-yl)-1,2,3,4-tetrahydro-6H-imidazo[5,1-f]pyrimido[2,1-c][1,2,4]triazin-6-one] showed an IC50 below 1 µM.

In turn, `CC(C)c1ncc2c(=O)n3c(nn12)NC(C1CCCCC1)CC3` (centres unmarked) [Example 53] yielded an IC50 below 1 µM.

As to `O=c1c2noc(C3CCCC3)c2nc2n1CC[C@H](c1ccc(Cl)cc1)N2` [Example 153], the IC50 lay within 10 to 100 µM.

The compound `O=c1c2cnc(C3CC=CCC3)n2nc2n1CC[C@H](c1ccc(Cl)cc1)N2` (some centres unmarked) [Example 243] yielded an IC50 below 1 µM.

For `O=c1c2cnn(C3CCOCC3)c2nc2n1CCC(c1ccc(Cl)cc1)N2` (centres unmarked) [Example 43], the half-maximal inhibitory concentration (IC50) was below 1 µM.
